Reference: patent US11040981B2, “Pyrrolotriazine compounds and methods of inhibiting TAM kinases” (Syros Pharmaceuticals, Inc., priority 2017, dated 2021)
pIC50: −log10 of the molar value.

Columns and labels:
AXL = target: T1, AXL (Homo sapiens, UniProt P30530); experiment: TR-FRET kinase activity assay, AXL; type: biochemical; conditions: ATP at Km, 60 minutes
T1 sequence (P30530 26-894): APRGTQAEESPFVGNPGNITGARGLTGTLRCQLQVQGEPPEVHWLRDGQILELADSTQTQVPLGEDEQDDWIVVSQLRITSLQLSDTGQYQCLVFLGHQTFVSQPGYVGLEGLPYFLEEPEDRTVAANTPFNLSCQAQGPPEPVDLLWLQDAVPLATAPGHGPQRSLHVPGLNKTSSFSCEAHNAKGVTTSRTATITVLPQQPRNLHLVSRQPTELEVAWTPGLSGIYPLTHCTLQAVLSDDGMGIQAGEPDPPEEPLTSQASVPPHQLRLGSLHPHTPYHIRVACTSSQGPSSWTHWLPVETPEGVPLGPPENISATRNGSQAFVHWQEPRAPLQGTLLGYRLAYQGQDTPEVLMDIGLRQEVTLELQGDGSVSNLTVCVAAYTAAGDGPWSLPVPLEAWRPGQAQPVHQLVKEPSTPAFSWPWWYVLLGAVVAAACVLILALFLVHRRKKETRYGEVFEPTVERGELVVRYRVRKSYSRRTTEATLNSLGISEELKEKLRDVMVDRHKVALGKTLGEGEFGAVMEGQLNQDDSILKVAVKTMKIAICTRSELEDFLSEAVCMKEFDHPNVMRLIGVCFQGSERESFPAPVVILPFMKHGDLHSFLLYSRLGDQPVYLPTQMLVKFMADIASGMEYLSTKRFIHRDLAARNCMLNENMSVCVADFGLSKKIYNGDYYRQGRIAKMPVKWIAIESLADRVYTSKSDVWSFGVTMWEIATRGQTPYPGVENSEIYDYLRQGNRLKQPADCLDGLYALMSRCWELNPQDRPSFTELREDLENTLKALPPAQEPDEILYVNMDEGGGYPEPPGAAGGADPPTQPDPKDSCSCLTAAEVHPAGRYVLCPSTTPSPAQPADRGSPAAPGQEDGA
Description: (§1) IC50 values for compound inhibition of AXL, FLT3, MERTK and TYRO3 activity were determined by using a TR-FRET activity assay. A polypeptide substrate with a fluorescent label is phosphorylated on a tyrosine by each enzyme, where the now phosphorylated product is bound by a Europium-labeled antibody specific to that phosphorylation site. The proximity between the antibody and the substrate gives a signal known as TR-FRET. As the enzyme is inhibited by compound, less phosphorylated peptide product is made causing a decrease in overall signal.
(§2) Activity assays were performed in a 384-well, small volume, black microplates in an active enzyme volume of 10 μL and final developed volume of 20 μL. Final assay conditions are 50 mM HEPES pH 7.5, 10 mM MgCl2, 1 mM EGTA, 0.01% Brij 35 and 1 mM DTT all at RT. Enzyme, substrate labeled peptide and compound are mixed, and then the reaction is initiated with the addition of ATP at Km concentration for each enzyme. The reaction is allowed to run 60 minutes and then quenched with a 12.5 mM EDTA (ethylenediamine tetraacetic acid) solution. The plate is then developed with the addition of Europium labeled antibody for a final volume of 20 μL and is then incubated for 30 minutes in darkness. Plates are read in a Pherastar plate reader. Data is analyzed in GraphPad PRISM.
(§3) The results of these assays are shown in Table 1, below, wherein “No.” designates compound number (FIG. 1); “A” represents a value of ≤100 nM; “B” a value of >100 nM and ≤1 μM; “C” a value of >1 μM and ≤10 μM; “D” a value of >10 μM; “ND” is not determined. The ratio of Mer to FLT3 is calculated as follows: FLT3 IC50/Mer IC50. “+” represents a ratio of >2.0 and <10; “++” represents a ratio of between 10 and 100; and “+++” represents a ratio of >100.

MERTK = target: T2, MERTK (Homo sapiens, UniProt Q12866); experiment: TR-FRET kinase activity assay, MERTK; type: biochemical; conditions: for pIC50: TR-FRET activity assay, ATP at Km, 60 minutes, read-out: Mer IC50; for FLT3/Mer ratio (FLT3 IC50/Mer IC50): ratio of Mer to FLT3: FLT3 IC50/Mer IC50
T2 sequence (Q12866 21-999): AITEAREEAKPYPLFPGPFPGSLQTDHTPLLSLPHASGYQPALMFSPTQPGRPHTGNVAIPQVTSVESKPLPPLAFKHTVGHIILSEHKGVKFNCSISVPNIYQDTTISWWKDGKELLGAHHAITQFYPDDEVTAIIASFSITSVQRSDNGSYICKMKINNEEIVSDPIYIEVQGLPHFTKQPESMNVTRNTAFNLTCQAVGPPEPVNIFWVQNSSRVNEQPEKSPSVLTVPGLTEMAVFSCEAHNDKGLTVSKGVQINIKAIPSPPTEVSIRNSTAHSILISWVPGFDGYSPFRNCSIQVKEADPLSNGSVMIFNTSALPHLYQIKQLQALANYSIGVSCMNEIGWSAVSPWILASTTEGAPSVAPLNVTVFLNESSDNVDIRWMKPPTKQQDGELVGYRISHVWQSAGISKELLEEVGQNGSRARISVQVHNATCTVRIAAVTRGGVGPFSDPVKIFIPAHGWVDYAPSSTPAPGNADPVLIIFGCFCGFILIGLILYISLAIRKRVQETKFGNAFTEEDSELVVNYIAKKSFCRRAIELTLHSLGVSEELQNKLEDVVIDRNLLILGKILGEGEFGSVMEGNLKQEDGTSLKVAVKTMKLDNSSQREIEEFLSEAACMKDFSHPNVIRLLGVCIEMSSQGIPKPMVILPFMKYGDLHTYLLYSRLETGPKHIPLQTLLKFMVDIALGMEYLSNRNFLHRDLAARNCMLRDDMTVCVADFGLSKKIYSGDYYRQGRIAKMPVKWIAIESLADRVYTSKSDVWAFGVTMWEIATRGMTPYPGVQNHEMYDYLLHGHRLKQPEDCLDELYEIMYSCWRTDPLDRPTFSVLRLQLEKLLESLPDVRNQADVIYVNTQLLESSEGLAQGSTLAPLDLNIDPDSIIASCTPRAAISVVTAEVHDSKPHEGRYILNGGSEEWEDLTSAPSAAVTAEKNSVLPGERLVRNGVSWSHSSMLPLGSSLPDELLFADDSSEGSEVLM
Description: as §1, §2, §3

| SMILES | pIC50 (AXL) | pIC50 (MERTK) | FLT3/Mer ratio (FLT3 IC50/Mer IC50) (MERTK) |
| --- | --- | --- | --- |
| CCCCCC(C)Nc1ncc2c(C3=CCC(C(=O)N4CCOCC4)CC3)cc(C3CCC(O)CC3)n2n1 (mixture of isomers) [Compound 110] | ≥ 7.00 | ≥ 7.00 | ++ (“++” represents a ratio of between 10 and 100) |
| CCCCC[C@H](C)Nc1ncc2c(-c3ccc(CN4CCN(C)CC4)cc3)cc([C@H]3CC[C@H](O)CC3)n2n1 [Compound 104] | ≥ 7.00 | ≥ 7.00 | ++ (“++” represents a ratio of between 10 and 100) |
| CCCCC[C@H](C)Nc1ncc2c(-c3ccc(CN4CCN(C)CC4)cc3)cc([C@H]3CC[C@@H](O)CC3)n2n1 [Compound 105] | 6.00 to 7.00 | ≥ 7.00 | + (“+” represents a ratio of >2.0 and <10) |
| CCCCC[C@H](C)Nc1ncc2c([C@H]3CC[C@H](C(=O)N4CCOCC4)CC3)cc([C@H]3CC[C@H](O)CC3)n2n1 [Compound 108] | 6.00 to 7.00 | ≥ 7.00 | +++ (“+++” represents a ratio of >100) |
| CCCCC[C@H](C)Nc1ncc2c([C@H]3CC[C@@H](C(=O)N4CCOCC4)CC3)cc([C@H]3CC[C@H](O)CC3)n2n1 [Compound 109, ((cis)-4-(2-((S)-heptan-2-ylamino)-7-((trans)-4-hydroxycyclohexyl)pyrrolo[2,1-f][1,2,4]triazin-5-yl)cyclohexyl)(morpholino)methanone] | ≥ 7.00 | ≥ 7.00 | ++ (“++” represents a ratio of between 10 and 100) |
| COC[C@H](C)Nc1ncc2c(-c3cncc(S(C)(=O)=O)c3)cc([C@H]3CC[C@H](O)CC3)n2n1 [Compound 194] | 6.00 to 7.00 | ≥ 7.00 | +++ (“+++” represents a ratio of >100) |
| COC[C@H](C)Nc1ncc2c(-c3cncc(F)c3)cc([C@H]3CC[C@H](O)CC3)n2n1 [Compound 195] | 6.00 to 7.00 | ≥ 7.00 | +++ (“+++” represents a ratio of >100) |
| COCC(C)Nc1ncc2c(-c3ccc(-c4nnc(C)o4)cc3)cc(C3CCC(O)CC3)n2n1 (stereo not drawn) [Compound 198] | 6.00 to 7.00 | ≥ 7.00 | +++ (“+++” represents a ratio of >100) |
| COC[C@H](C)Nc1ncc2c(-c3cncc(C#N)c3)cc([C@H]3CC[C@H](O)CC3)n2n1 [Compound 201] | 6.00 to 7.00 | ≥ 7.00 | +++ (“+++” represents a ratio of >100) |
| CC(Nc1ncc2c(-c3ccc(CN4CCOCC4)cc3)cc(C3CCC(O)CC3)n2n1)C(F)(F)F (stereo not drawn) [Compound 202] | 6.00 to 7.00 | ≥ 7.00 | +++ (“+++” represents a ratio of >100) |
| C[C@@H](CC(F)(F)F)Nc1ncc2c(-c3ccc(CN4CCOCC4)cc3)cc([C@H]3CC[C@H](O)CC3)n2n1 [Compound 203] | ≥ 7.00 | ≥ 7.00 | ++ (“++” represents a ratio of between 10 and 100) |
| C[C@H](Nc1ncc2c(-c3ccc(CN4CCOCC4)cc3)cc([C@H]3CC[C@H](O)CC3)n2n1)[C@H]1CCCO1 [Compound 204] | 5.00 to 6.00 | 6.00 to 7.00 | ++ (“++” represents a ratio of between 10 and 100) |
| C[C@H](Nc1ncc2c(-c3ccc(CN4CCOCC4)cc3)cc([C@H]3CC[C@H](O)CC3)n2n1)[C@@H]1CCCO1 [Compound 205] | 5.00 to 6.00 | ≥ 7.00 | +++ (“+++” represents a ratio of >100) |
| COC[C@H](C)Nc1ncc2c(-c3cnn(C(C)(C)C)c3)cc([C@H]3CC[C@H](O)CC3)n2n1 [Compound 206] | 6.00 to 7.00 | ≥ 7.00 | +++ (“+++” represents a ratio of >100) |
| COC[C@H](C)Nc1ncc2c(-c3ccn(C)n3)cc([C@H]3CC[C@H](O)CC3)n2n1 [Compound 208] | 6.00 to 7.00 | ≥ 7.00 | +++ (“+++” represents a ratio of >100) |
| COCCn1cc(-c2cc([C@H]3CC[C@H](O)CC3)n3nc(N[C@@H](C)COC)ncc23)cn1 [Compound 209] | 6.00 to 7.00 | ≥ 7.00 | +++ (“+++” represents a ratio of >100) |
| COC[C@H](C)Nc1ncc2c(-c3cccc4c3CNC4=O)cc([C@H]3CC[C@H](O)CC3)n2n1 [Compound 210] | 6.00 to 7.00 | ≥ 7.00 | +++ (“+++” represents a ratio of >100) |
| COCC[C@@H](C)Nc1ncc2c(-c3ccc(CN4CCOCC4)cc3)cc([C@H]3CC[C@H](O)CC3)n2n1 [Compound 212] | 6.00 to 7.00 | ≥ 7.00 | ++ (“++” represents a ratio of between 10 and 100) |

Next, values leading:

| pIC50 (AXL) | pIC50 (MERTK) | FLT3/Mer ratio (FLT3 IC50/Mer IC50) (MERTK) | SMILES |
| --- | --- | --- | --- |
| ≥ 7.00 | ≥ 7.00 | +++ (“+++” represents a ratio of >100) | CCCCC[C@H](C)Nc1ncc2c(NC3CCN(C)CC3)cc([C@H]3CC[C@H](O)CC3)n2n1 [Compound 107] |
| ≥ 7.00 | ≥ 7.00 | +++ (“+++” represents a ratio of >100) | COCC(C)Nc1ncc2c(-c3ccc4nccn4c3)cc(C3CCC(O)CC3)n2n1 (stereo not drawn) [Compound 193] |
| ≥ 7.00 | ≥ 7.00 | +++ (“+++” represents a ratio of >100) | COC[C@H](C)Nc1ncc2c(-c3ccc(C(=O)N4CCCC4)cc3)cc([C@H]3CC[C@H](O)CC3)n2n1 [Compound 196] |
| ≥ 7.00 | ≥ 7.00 | +++ (“+++” represents a ratio of >100) | COC[C@H](C)Nc1ncc2c(-c3ccc(C(=O)N4CCS(=O)(=O)CC4)cc3)cc([C@H]3CC[C@H](O)CC3)n2n1 [Compound 197] |
| ≥ 7.00 | ≥ 7.00 | +++ (“+++” represents a ratio of >100) | COC[C@H](C)Nc1ncc2c(-c3cnn(C(F)F)c3)cc([C@H]3CC[C@H](O)CC3)n2n1 [Compound 207] |
